In EP0726944B1, “GL[…] NON-GLYCOSYLATED BACTERICIDAL/PE[…], AND METHODS FOR PRODUCING SAME” (INCYTE PHARMACEUTICALS, INC., priority 1993, dated 1995):
Several values for one entry are separate records, joined by “and”; a condition that tells them apart may be missing. Equal values may be shown once.

Legend:
[1] = test system: human neutrophils; experiment: Neutrophil stimulation by LPS: CR1/CR3 upregulation, flow cytometry; type: cell-based; details: stoichiometric calculation
Description: Venous blood was drawn from healthy volunteer donors into acid citrate dextrose anticoagulant and immediately placed on ice. Five parts blood were mixed with 1 part cold Macrodex, and allowed to settle for 1.5 - 2 hours at 4°C. Leukocyte-rich plasma was washed 1X in cold HBSS, then resuspended in HBSS and layered over Ficoll-Paque. If significant erythrocyte contamination was present, the granulocyte pellet was subjected to hypotonic lysis. The cells were washed 2X in HBSS and resuspended in HBSS + 2% autologous plasma to give a final granulocyte concentration of 1 X 10^6/ml in the incubation mixture.
Isolated neutrophils were kept on ice until incubated with and without stimuli at 37°C for 30 minutes. Following the incubation, cells were washed in a large volume of cold PBS + 0.05% Na Azide + 2% autologous plasma. […] Following a 30 minute incubation at 0°C and 2 more washes, the cells were analyzed by flow cytometry on a Becton Dickinson FACStar flow cytometer (Becton Dickinson, Mountain View, CA). […]
Human neutrophils may be stimulated both in vivo and in vitro by lipopolysaccharide. […] Using the Fluorescence Activated Cell Sorter (FACS), fluorescence intensity of freshly isolated human neutrophils was measured following stimulation with increasing doses of 0111:B4 LPS (data not shown). […]

[2] = test system: Human Monocytes; experiment: LPS-induced TNF production by adherent peripheral blood mononuclear cells, ELISA; type: cell-based
Description: Human peripheral blood mononuclear cells were isolated on Ficoll-Paque (Pharmacia) gradients, washed 2X in pyrogen-free HBSS (Hazelton), and resuspended at 5 X 10^6/ml in RPMI (Gibco) media without serum. Two hundred µl of this cell suspension was incubated in each well of flat-bottom 96-well tissue culture dishes (Costar) for 2 hours at 37°C. Nonadherent cells were removed by washing 2X with RPMI + 10% autologous heat inactivated serum. Adherent mononuclear cells were stimulated with E. coli 0111:B4 LPS which had been preincubated for 30 minutes at 37°C with buffer, BPI Protein or polymyxin B (Gibco; 7900 U/ml). Supernatants were harvested four hours after LPS mixtures were added. Secretion of TNFα was quantitated by ELISA (Endogen) (results at Table 9).
BPI Protein produced in soluble form at low temperature in E. coli and purified as described above in purification process A was tested for inhibition of endotoxin-mediated TNF induction by human adherent mononuclear cells. Blood collected in acid citrate dextrose containing vacutainer tubes (Becton Dickinson, Rutherford, NJ) was diluted in Hank's balanced salt solution (HBSS) minus Ca^+2 and Mg^+2. Mononuclear cells were separated using Ficol-Paque (Pharmacia Inc., Piscataway, N.J.), collected and washed three times in HBSS, and the proportion of monocytes was estimated by microscopic examination. Cells were brought up to an appropriate volume of RPMI 1640 with glutamine and antibiotics and without serum to give approximately 1 x 10^6 monocytes/ml. Cells were plated into 96 11 flat bottom tissue culture plates (Costar, Cambridge, MA), 200 µl/well, and incubated for two hours at 37°C in a humidified incubator with […]. Cells were then washed three times in warm RPMI 1640 without serum. After the last wash was aspirated, 200 µl/well RPMI 1640 with 10% autologous heat-inactivated serum was added. To each well was then added the 22µl of 10X solution of E. coli endotoxin preincubated in buffer, polymyxin B, or BPI Protein. Cells were incubated with the endotoxin mixture for four hours at 37°C, then the supernatants were collected and assayed for TNFα antigen by ELISA (Endogen, Inc., Boston, MA) (Figure 12) .

[3] = test system: mice; experiment: Intranasal LPS challenge, TNFα in broncheoalveolar lavage fluid; type: in vivo; parameters: TNFα level in Broncheoalveolar Lavage Fluid, individual mouse: unit not given here; details: Polymyxin B 1.0µg (782 pmol) intranasal 20 minutes before LPS, BAL 1 hour after challenge
Description: Normal anesthetized mice were challenged by the intranasal route with 10 ng/ml E. coli 0111:B4 LPS (results in Table 10). Twenty minutes before challenge, anesthetized mice were treated by the intranasal route with 50µl saline, BPI Protein or polymyxin B solution. At one hour after LPS challenge, mice were re-anesthetized, and 0.7 ml of saline containing 1% human serum albumin was added to the lungs via the trachea. The lungs were gently kneaded. A 0.5 ml volume broncheoalveolar lavage (BAL) fluid was aspirated, cells were pelleted by centrifugation, and the BAL sample was stored at -70°C. The TNFα level in the BAL fluid was determined by measuring cytotoxicity towards WEHI clone 13 mouse fibrosarcoma cells and is summarized in Table 10. Human rTNFα (Chiron) was used as the standard.

[4] = type: binding; details: data not shown
Description: BPI Protein binds to LPS (data not shown). In these experiments, 4 µg of LPS/well was immobilized on 96 well plastic plates, then incubated with varying concentrations of BPI Protein, and developed with anti-BPI Protein polyclonal antisera. […]

[5] = test system: Human Monocytes; experiment: LPS-induced TNF production by adherent peripheral blood mononuclear cells, ELISA; type: cell-based; details: Table 8; 1000 ng/ml Polymyxin B; 0.1 % w/v killed S. aureus

In the case of Polymyxin B, the “calculated amount of PMB required to inhibit 10 ng/ml of smooth LPS” value [1] is reported as “approximately 0.67 nM”, the “TNF Produced in Response to LPS Preincubated with substance” value ([2]; Table 5, 100 ng/ml, LPS 0 ng/ml) is reported as 0 pg/mL and the “TNF Produced in Response to LPS Preincubated with substance” value ([2]; Table 5, 100 ng/ml, LPS 0.1 ng/ml) is reported as 0 pg/mL. For the same substance, the “TNF Produced in Response to LPS Preincubated with substance” value ([2]; Table 5, 100 ng/ml, LPS 1 ng/ml) was 96 pg/mL, the “TNF Produced in Response to LPS Preincubated with substance” value ([2]; Table 5, 100 ng/ml, LPS 10 ng/ml) was 2154 pg/mL and the “TNF Produced in Response to LPS Preincubated with substance” value ([2]; Table 5, 500 ng/ml, LPS 0 ng/ml) was 0 pg/mL. For the same substance, the “TNF Produced in Response to LPS Preincubated with substance” value ([2]; Table 5, 500 ng/ml, LPS 0.1 ng/ml) was 0 pg/mL, the “TNF Produced in Response to LPS Preincubated with substance” value ([2]; Table 5, 500 ng/ml, LPS 1 ng/ml) was 0 pg/mL and the “TNF Produced in Response to LPS Preincubated with substance” value ([2]; Table 5, 500 ng/ml, LPS 10 ng/ml) was 1490 pg/mL. The “TNF Produced in Response to LPS Preincubated with substance” value ([2]; Table 7, 100 ng/ml PMB, LPS 0 ng/ml) was 0 pg/mL, the “TNF Produced in Response to LPS Preincubated with substance” value ([2]; Table 7, 100 ng/ml PMB, LPS 0.1 ng/ml) was 79 pg/mL and the “TNF Produced in Response to LPS Preincubated with substance” value ([2]; Table 7, 100 ng/ml PMB, LPS 1 ng/ml) was 1207 pg/mL. The “TNF Produced in Response to LPS Preincubated with substance” value ([2]; Table 7, 100 ng/ml PMB, LPS 10 ng/ml) was 1270 pg/mL, the “TNF Produced in Response to S. aureus Preincubated with substance” value ([2]; Table 8, 100 ng/ml Polymyxin B, 0.1 % w/v killed S. aureus) was 1541 ± 397 pg/mL and the “TNF Produced in Response to LPS Preincubated with substance” value ([2]; Table 8, 100 ng/ml Polymyxin B, LPS 10 (unit not given)) was 601 ± 257 pg/mL. For the same substance, the “TNF Produced in Response to LPS Preincubated with substance” value ([2]; Table 8, 100 ng/ml Polymyxin B, LPS 100 (unit not given)) was 1140 ± 73 pg/mL, the “TNF Produced in Response to LPS Preincubated with substance” value ([2]; Table 8, 100 ng/ml Polymyxin B, LPS 1000 (unit not given)) was 1016 ± 20 pg/mL and the “TNF Produced in Response to LPS Preincubated with substance” value ([2]; Table 8, 1000 ng/ml Polymyxin B, LPS 10 (unit not given)) was 333 ± 18 pg/mL. For the same substance, the “TNF Produced in Response to LPS Preincubated with substance” value ([2]; Table 8, 1000 ng/ml Polymyxin B, LPS 100 (unit not given)) was 769 ± 101 pg/mL, the “TNF Produced in Response to LPS Preincubated with substance” value ([2]; Table 8, 1000 ng/ml Polymyxin B, LPS 1000 (unit not given)) was 844 ± 144 pg/mL and the “TNFα level in Broncheoalveolar Lavage Fluid, Mean ± SD” value [3] was 253 ± 251. For the same substance, the “TNFα level in Broncheoalveolar Lavage Fluid, individual mouse” value ([3]; mice 1-5) was 74 and 50 and 132 and 370 and 640, the “inhibition of BPI Protein binding to LPS” value [4] was “inhibited” and the “TNF Produced in Response to S. aureus Preincubated with substance” value [5] was 1685 ± 121 pg/mL.
